± gives the expanded uncertainty stated by the source.
Experiment: refractive index (Na D-line) (dimensionless)
Details: 298.15 K; 101.33 kPa; Liquid; Standard Abbe refractometry

Compound	refractive index
C1CCCCC1 [cyclohexane]	1.4236 ± 0.0008
Cc1ccccc1 [toluene]	1.4941 ± 0.0008
CCCCCC [hexane]	1.3722 ± 0.0007
COCCOC [1,2-dimethoxyethane]	1.3783 ± 0.0008
